“Also recorded” adds a separate entry of the source. [5mC] = 5-methylcytosine
Tests used:
[1] = tested on: dendritic cells, NK cells, and CD8+ T-cells; test: cytokine release assay after subcutaneous immunization; type: in vivo, C57BI/6 mice; settings: lipid encapsulated; 100 μg ODN + 20 μg antigen s.c. q7d×3; FIGS. 10 and 11
Description: To monitor immunological response to subcutaneous immunization, antigen specific cellular immune responses were monitored using MHC Class.l-tetramer analyses, cytotoxicity assays and cytokine release assays while humoral immune responses were monitored by measuring plasma antibody levels. Cellular and humoral responses were assessed in C57BI/6 and Balb/C mice respectively (5 animals per group). For analysis of the cellular response, mice were immunized subcutaneously with 3 injections on a q7d×3 dosing regimen on Days 0, 7 and 14 at a dose of 100 μg oligonucleotide in combination with 20 μg of antigen . The spleen, liver, lymph node and blood tissues were collected on Day 21. Solid tissues were mechanically dissociated and cells were processed to collect mononuclear cells. […]
The aim of the cytokine release assay is to detect antigen-specific immune effector cells that are activated to produce and secrete cytokines, specifically IFN-γ, in response to stimulation with a specific antigen. Cells were isolated from the spleen, liver, blood and lymph nodes of immunized animals and analyzed using the Cytokine Secretion Assay (Miltenyi Biotec). […] Cells were then labeled with fluorescently labeled antibodies against IFN-γ and various phenotype markers and analyzed by flow cytometry to allow detection of specific cell types that were activated to secrete IFN-γ. […]

dendritic cells [2] = test: in vivo dendritic cell activation (IFN-γ secreting cells); settings: encapsulated in POPC:CHOL:DODMA:PEGDMG 20:45:25:10
Description: PBS was used as a control.
FIG. 3 clearly illustrates the ability of encapsulated ODN1m to activate dendritic cells. […] Dendritic cell activation was measured by the percentage of IFN-γ secreting cells. These cells were labeled with an antibody to indicate the cell type and only those having the dendritic cell marker were included in this measurement.

dendritic cells [3] = test: expansion of dendritic cells (CD11c, DEC205) in spleen, blood and lymph nodes; type: in vivo, ICR mice; settings: lipid encapsulated; single i.v. injection 20 mg/kg; versus PBS control = 100%; 20 mg/kg
Description: ICR mice were immunized with a single intravenous injection of encapsulated oligonucleotides at a dose of 20 mg/kg and the control ICR mouse was injected with PBS. […] Each of these markers are specific to dendritic cells though they may represent different cell sub-populations. In each of FIGS. 4 and 5 the control was plotted as equivalent to 100% and the effect of ODN1m for each backbone configuration was plotted as a percentage of that control.

For “ODN1m: 5′-TAAZGTTGAGGGGCAT-3, SEQ ID NO: 4, Z = methylated cytosine (DNA TAACGTTGAGGGGCAT; DNA, [5mC] at 4, backbone not given here; tested with both phosphodiester and phosphorothioate backbones)”, the “immune stimulation (cytokine secretion of dendritic cells, NK cells, CD8+ T-cells), methylated normalized to unmethylated ODN” value [1] was “consistently at least equivalent to, and often better than”, the “dendritic cell activation (percentage of IFN-γ secreting cells)” value (dendritic cells [2]) was “more active than its unmethylated counterpart; also recorded: more active than the unmethylated counterpart ODN1” and the “expansion of CD11c positive dendritic cells” value (dendritic cells [3]) was “stimulated the expansion of CD11c positive dendritic cells in spleen cells and whole blood cells but not in lymphoid tissue; also recorded: stimulated the expansion of CD11c positive cells in spleen and whole blood”.

— patent publication US20040013649A1, “Cancer vaccines and methods of using the same” (Inex Pharmaceuticals Corporation, priority 2002, published 2004)
